Several values for one entry are separate records, joined by “and”; a condition that tells them apart may be missing. Equal entries are not always repeated.
System: 755483-174-R-J1-PDC complex spheroid growth, percent test/control
Experiment: Anticancer human tumor 755483-174-R-J1-PDC patient-derived rhabdomyosarcoma cell line growth inhibition [Asc]
Details: for viability, T/C: stronger effect = lower value
How it was run: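 Complex solid-tumor spheroids incorporating human endothelial and mesenchymal stem cells received single agents or combinations over half-log dilution ranges anchored to clinical Cmax.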

[1] = curve of first compound, second compound 0.01 µM
[2] = curve of first compound, second compound 0.0316 µM
[3] = curve of first compound, second compound 0.1 µM
[4] = curve of first compound, second compound 0.316 µM
[5] = curve of first compound, second compound 1 µM
[6] = second compound 0.1 µM, first compound 0.0316 µM
[7] = second compound 0.1 µM, first compound 0.1 µM
[8] = second compound 0.1 µM, first compound 0.316 µM
[9] = second compound 0.1 µM, first compound 1 µM
[10] = second compound 0.1 µM, first compound 3.16 µM
[11] = second compound 0.1 µM, first compound 10 µM
[12] = second compound 0.316 µM, first compound 0.0316 µM
[13] = second compound 0.316 µM, first compound 0.1 µM
[14] = second compound 0.316 µM, first compound 0.316 µM
[15] = second compound 0.316 µM, first compound 1 µM
[16] = second compound 0.316 µM, first compound 3.16 µM
[17] = second compound 0.316 µM, first compound 10 µM
[18] = second compound 1 µM, first compound 0.0316 µM
[19] = second compound 1 µM, first compound 0.1 µM
[20] = second compound 1 µM, first compound 0.316 µM
[21] = second compound 1 µM, first compound 1 µM
[22] = second compound 1 µM, first compound 3.16 µM
[23] = second compound 1 µM, first compound 10 µM
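Note: spheroids exposed to compounds for seven days before readout.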

In the case of `CCN1C(C(=O)NC23CCC(C(=O)O)(CC2)CC3)C(c2cccc(Cl)c2F)C2(C(=O)Nc3cc(Cl)ccc32)C12CCCCC2` (configuration not stated) + CNC(C)C(=O)NC1CN(S(=O)(=O)c2cccc(S(=O)(=O)N3CCC4CCC(C(=O)NC(c5ccccc5)c5ccccc5)N4C(=O)C(NC(=O)C(C)NC)C3)c2)CCC2CCC(C(=O)NC(c3ccccc3)c3ccccc3)N2C1=O, the IC50 [1] is reported as 148 nM, the IC50 [2] is reported as less than 9.49 nM and the IC50 [3] is reported as less than 9.49 nM. For the same compound, the IC50 [4] was less than 9.49 nM, the IC50 [5] was less than 9.49 nM and the viability, T/C (second compound 0.01 µM, first compound 0.00949 µM) was 56.2%. It also gave a viability, T/C (second compound 0.01 µM, first compound 0.03 µM) of 73.9%, a viability, T/C (second compound 0.01 µM, first compound 0.0949 µM) of 55% and a viability, T/C (second compound 0.01 µM, first compound 0.3 µM) of 39.3%. For the same compound, the viability, T/C (second compound 0.01 µM, first compound 0.949 µM) was 48.2%, the viability, T/C (second compound 0.01 µM, first compound 3 µM) was 38.6% and the viability, T/C (second compound 0.0316 µM, first compound 0.00949 µM) was 38.6%. For the same compound, the viability, T/C (second compound 0.0316 µM, first compound 0.03 µM) was 45.8%, the viability, T/C (second compound 0.0316 µM, first compound 0.0949 µM) was 50% and the viability, T/C (second compound 0.0316 µM, first compound 0.3 µM) was 49.2%. For the same compound, the viability, T/C (second compound 0.0316 µM, first compound 0.949 µM) was 44.2%, the viability, T/C (second compound 0.0316 µM, first compound 3 µM) was 28.9% and the viability, T/C (second compound 0.1 µM, first compound 0.00949 µM) was 27.9%. For the same compound, the viability, T/C (second compound 0.1 µM, first compound 0.03 µM) was 23.6%, the viability, T/C (second compound 0.1 µM, first compound 0.0949 µM) was 39.4% and the viability, T/C (second compound 0.1 µM, first compound 0.3 µM) was 28.9%. The viability, T/C (second compound 0.1 µM, first compound 0.949 µM) was 32.6%, the viability, T/C (second compound 0.1 µM, first compound 3 µM) was 24.4% and the viability, T/C (second compound 0.316 µM, first compound 0.00949 µM) was 19.9%. The viability, T/C (second compound 0.316 µM, first compound 0.03 µM) was 26.2%, the viability, T/C (second compound 0.316 µM, first compound 0.0949 µM) was 40% and the viability, T/C (second compound 0.316 µM, first compound 0.3 µM) was 37.9%. The viability, T/C (second compound 0.316 µM, first compound 0.949 µM) was 23.5%, the viability, T/C (second compound 0.316 µM, first compound 3 µM) was 27% and the viability, T/C (second compound 1 µM, first compound 0.00949 µM) was 23.5%. The viability, T/C (second compound 1 µM, first compound 0.03 µM) was 23.1%, the viability, T/C (second compound 1 µM, first compound 0.0949 µM) was 18.1% and the viability, T/C (second compound 1 µM, first compound 0.3 µM) was 23.1%. The viability, T/C (second compound 1 µM, first compound 0.949 µM) was 21.5% and the viability, T/C (second compound 1 µM, first compound 3 µM) was 34.4%.

`C=C(F)C(=O)N1CCN(c2nc(OCC3CCCN3C)nc3c2CCN(c2cccc4cccc(Cl)c24)C3)CC1CC#N` (configuration not stated) + CNC(C)C(=O)NC1CN(S(=O)(=O)c2cccc(S(=O)(=O)N3CCC4CCC(C(=O)NC(c5ccccc5)c5ccccc5)N4C(=O)C(NC(=O)C(C)NC)C3)c2)CCC2CCC(C(=O)NC(c3ccccc3)c3ccccc3)N2C1=O gave an IC50 [1] of 585 nM, an IC50 [2] of 336 nM and an IC50 [3] of 428 nM. The IC50 [4] was less than 31.6 nM, the IC50 [5] was less than 31.6 nM and the viability, T/C (second compound 0.01 µM, first compound 0.0316 µM) was 68.4%. For the same compound, the viability, T/C (second compound 0.01 µM, first compound 0.1 µM) was 62%, the viability, T/C (second compound 0.01 µM, first compound 0.316 µM) was 58.9% and the viability, T/C (second compound 0.01 µM, first compound 1 µM) was 40.6%. It also gave a viability, T/C (second compound 0.01 µM, first compound 3.16 µM) of 3.47%, a viability, T/C (second compound 0.01 µM, first compound 10 µM) of 0.12% and a viability, T/C (second compound 0.0316 µM, first compound 0.0316 µM) of 48.5%. It also gave a viability, T/C (second compound 0.0316 µM, first compound 0.1 µM) of 56.7%, a viability, T/C (second compound 0.0316 µM, first compound 0.316 µM) of 50.1% and a viability, T/C (second compound 0.0316 µM, first compound 1 µM) of 32%. The viability, T/C (second compound 0.0316 µM, first compound 3.16 µM) was 2.46%, the viability, T/C (second compound 0.0316 µM, first compound 10 µM) was 0.12% and the viability, T/C [6] was 40%. For the same compound, the viability, T/C [7] was 63.9%, the viability, T/C [8] was 66.2% and the viability, T/C [9] was 31.1%. For the same compound, the viability, T/C [10] was 17.1%, the viability, T/C [11] was 0.12% and the viability, T/C [12] was 26.6%. The viability, T/C [13] was 30.6%, the viability, T/C [14] was 38.7% and the viability, T/C [15] was 23.3%. The viability, T/C [16] was 2.01%, the viability, T/C [17] was 0.12% and the viability, T/C [18] was 29.7%. The viability, T/C [19] was 34.6%, the viability, T/C [20] was 21.6% and the viability, T/C [21] was 13.1%. For the same compound, the viability, T/C [22] was 0.83% and the viability, T/C [23] was 0.19%.

Compound `C#Cc1c(F)ccc2cc(O)cc(-c3ncc4c(N5CC6CCC(C5)N6)nc(OCC56CCCN5CC(F)C6)nc4c3F)c12` (configuration not stated) + Cc1c(S(C)(=O)=O)c(-c2cc(F)cc(N3CCN(c4ccc(NS(=O)(=O)c5ccc(NC(CCN6CCC(C(=O)OCCCP(=O)(O)O)CC6)CSc6ccccc6)c(S(=O)(=O)C(F)(F)F)c5)cc4)CC3)c2)c(-c2ccc(Cl)cc2)n1C(C)C has an IC50 [3] of 1200 nM, an IC50 [4] of 1280 nM and an IC50 [5] of less than 31.6 nM. The IC50 (curve of first compound, second compound 3.16 µM) was less than 31.6 nM, the IC50 (curve of first compound, second compound 10 µM) was less than 31.6 nM and the viability, T/C [6] was 60.1%. For the same compound, the viability, T/C [7] was 65.8%, the viability, T/C [8] was 67.2% and the viability, T/C [9] was 47.9%. For the same compound, the viability, T/C [10] was 36.6%, the viability, T/C [11] was 12.6% and the viability, T/C [12] was 49%. For the same compound, the viability, T/C [13] was 63.5%, the viability, T/C [14] was 47.6% and the viability, T/C [15] was 55.4%. For the same compound, the viability, T/C [16] was 35.8%, the viability, T/C [17] was 10.3% and the viability, T/C [18] was 44.9%. For the same compound, the viability, T/C [19] was 49.5%, the viability, T/C [20] was 39.1% and the viability, T/C [21] was 39.1%. It also gave a viability, T/C [22] of 27.3%, a viability, T/C [23] of 5.81% and a viability, T/C (second compound 3.16 µM, first compound 0.0316 µM) of 42.3%. For the same compound, the viability, T/C (second compound 3.16 µM, first compound 0.1 µM) was 36.8%, the viability, T/C (second compound 3.16 µM, first compound 0.316 µM) was 41.5% and the viability, T/C (second compound 3.16 µM, first compound 1 µM) was 33.6%. The viability, T/C (second compound 3.16 µM, first compound 3.16 µM) was 23.8%, the viability, T/C (second compound 3.16 µM, first compound 10 µM) was 4.86% and the viability, T/C (second compound 10 µM, first compound 0.0316 µM) was 37.9%. The viability, T/C (second compound 10 µM, first compound 0.1 µM) was 35.3%, the viability, T/C (second compound 10 µM, first compound 0.316 µM) was 45.4% and the viability, T/C (second compound 10 µM, first compound 1 µM) was 35.9%. The viability, T/C (second compound 10 µM, first compound 3.16 µM) was 20.8% and the viability, T/C (second compound 10 µM, first compound 10 µM) was 17.5%.

For `O=C(c1ccc(F)c(F)c1Nc1ccc(I)cc1F)N1CC(O)([C@@H]2CCCCN2)C1`, the viability, T/C (compound 0.00316 µM) was 109% and 82.3% and 101%, the viability, T/C (compound 0.01 µM) was 117% and 73.6% and 104% and the viability, T/C (compound 0.0316 µM) was 96.3% and 99.1% and 95.6%. For the same compound, the viability, T/C (compound 0.1 µM) was 91.4% and 70.1% and 93.1%, the viability, T/C (compound 0.316 µM) was 53.5% and 61.5% and 60.8% and the viability, T/C (compound 1 µM) was 18.9% and 14.9% and 13.3%. For the same compound, the IC50 (curve of compound) was 369 nM and 409 nM and 413 nM.

Source: PubChem BioAssay AID1963434 (Molecular Pharmacology Branch, DTP, NCI, 2024)
